Test in all cases: MIC, liquid medium test tube series dilution test
One assay deals with Staph. aureus 133. It is filed as cell-based, Staphylococcus aureus. The following applies: Staph. aureus 133, 24 hours, 37°C. In a few lines: (§1)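 Penicillins were serially diluted in test tubes of complete liquid medium, inoculated, incubated 24 hours at 37°C, and inspected; the non-turbid tube of the series marked the minimum inhibitory concentration (units/ml).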
The subject of another assay is Staph. aureus 1777 E. It is filed as cell-based, Staphylococcus aureus. The conditions noted are these: 24 hours, 37°C. In a few lines: as §1
The next assay deals with E. coli 183/58. It is filed as cell-based. The following applies: E. coli 183/58, 24 hours, 37°C. The essentials:
as §1

For the next assay, the system named is E. coli 14. It is filed as cell-based. The conditions noted are these: E. coli 14, 24 hours, 37°C. In a few lines:
as §1

The next assay has as its system Klebsiella 63. It counts as cell-based. The following applies: Klebsiella 63, 24 hours, 37°C. In a few lines:
as §1

Assay [1] relates to Streptoc. faec. ATCC 9790. It counts as cell-based. The conditions noted are these: Strep. faec. (Enterococcus) ATCC 9790, 24 hours, 37°C. In a few lines:
as §1

The next assay has as its system Klebsiella K 10. It is filed as cell-based. The following applies: Klebsiella K 10, 24 hours, 37°C. The essentials:
as §1

Another assay deals with E. coli C 165. It is filed as cell-based. The following applies: E. coli C 165, 24 hours, 37°C. The essentials: as §1
A further assay relates to E. coli A 261. It is filed as cell-based. The following applies: E. coli A 261, 24 hours, 37°C. In a few lines: as §1
For a further assay, the system named is Proteus vulg. 3400. It is filed as cell-based, Proteus vulgaris. The following applies: Proteus vulg. 3400, 24 hours, 37°C. The essentials: as §1
The subject of a further assay is Proteus vulg. 1017. It counts as cell-based, Proteus vulgaris. The following applies: Proteus vulg. 1017, 24 hours, 37°C. The essentials:
as §1

For another assay, the system named is Psdm. aerug. Walter. It counts as cell-based, Pseudomonas aerug. The conditions noted are these: 24 hours, 37°C. In a few lines: as §1
A further assay concerns Psdm. aerug. Bonn. It is filed as cell-based, Pseudomonas aerug. The conditions noted are these: 24 hours, 37°C. The essentials: as §1

Regarding `COC(=O)N(C)C(=O)N[C@@H](C(=O)N[C@@H]1C(=O)N2[C@@H]1SC(C)(C)[C@@H]2C(=O)O)c1ccccc1` [Example 10 B], the MIC in the assay on Staph. aureus 133 (listed as 10 B) was 1.6 units/ml; in the assay on Staph. aureus 133 (listed as (A) of Example 10) it was 1.56 units/ml; with Staph. aureus 1777 E, 400 units/ml; against E. coli 183/58 (listed as 10 B), 50 units/ml; against E. coli 183/58 (listed as (A) of Example 10), 50 units/ml; against E. coli 14 (listed as 10 B), 12.5 units/ml. The MIC was determined as 12.5 units/ml in the assay with E. coli 14 (listed as (A) of Example 10); 50 units/ml against Klebsiella 63 (listed as 10 B); 200 units/ml with Klebsiella 63 (listed as (A) of Example 10); 100 units/ml in [1] (listed as 10 B); 50 units/ml with Klebsiella K 10 (listed as 10 B); 200 units/ml in the assay with Klebsiella K 10 (listed as (A) of Example 10). In addition, the MIC in the assay on E. coli C 165 (listed as 10 B) is listed as 50 units/ml; with E. coli A 261 it was greater than 400 units/ml; in the assay with Proteus vulg. 3400 (listed as 10 B), 200 units/ml; in the assay on Proteus vulg. 1017 (listed as 10 B), 200 units/ml; in the assay with Psdm. aerug. Walter (listed as 10 B), 200 units/ml; with Psdm. aerug. Walter (listed as (A) of Example 10), 50 units/ml. Moreover, the MIC is on record as 200 units/ml against Psdm. aerug. Bonn (listed as 10 B) and 50 units/ml against Psdm. aerug. Bonn (listed as (A) of Example 10).

Regarding `CC(C)OC(=O)N(C)C(=O)N[C@@H](C(=O)N[C@@H]1C(=O)N2[C@@H]1SC(C)(C)[C@@H]2C(=O)O)c1ccccc1` [Example 11 C, Sodium D(-)-α-(3-isopropoxycarbonyl-3-methyl-ureido)-benzyl-penicillin], the MIC in the assay with Staph. aureus 133 is reported as 1.6 units/ml; in the assay on Staph. aureus 1777 E, 400 units/ml; against E. coli 183/58 (listed as 11 C) it was 12.5 units/ml; with E. coli 183/58 (listed as (A) of Example 11), 12.5 units/ml; with E. coli 14 (listed as 11 C) it was 6.3 units/ml; against E. coli 14 (listed as (A) of Example 11), 6.25 units/ml. Besides, the MIC with Klebsiella 63 (listed as 11 C) is reported as 100 units/ml; in assay [1], 200 units/ml; against Klebsiella K 10 (listed as 11 C) it was 50 units/ml; in the assay with E. coli C 165 (listed as 11 C) it was 50 units/ml; in the assay on E. coli C 165 (listed as (A) of Example 11), 50 units/ml; against E. coli A 261 it was greater than 400 units/ml. Further, the MIC in the assay with Proteus vulg. 3400 (listed as 11 C) was found to be 100 units/ml; in the assay on Proteus vulg. 1017 (listed as 11 C), 100 units/ml; in the assay on Psdm. aerug. Walter (listed as 11 C), 200 units/ml; with Psdm. aerug. Walter (listed as (A) of Example 11) it was 100 units/ml; in the assay with Psdm. aerug. Bonn (listed as 11 C), 400 units/ml; against Psdm. aerug. Bonn (listed as (A) of Example 11), 50 units/ml.

Take `CCCCOC(=O)N(C)C(=O)N[C@@H](C(=O)N[C@@H]1C(=O)N2[C@@H]1SC(C)(C)[C@@H]2C(=O)O)c1ccccc1` [Example 12, Sodium D(-)-α-(3-n-butoxycarbonyl-3-methyl-ureido)-benzylpenicillin]: the MIC in the assay on Staph. aureus 133 is reported as 1.6 units/ml; with Staph. aureus 1777 E, 400 units/ml; in the assay with E. coli 183/58 it was 12.5 units/ml; against E. coli 14, 6.3 units/ml; against Klebsiella 63 it was 100 units/ml; in assay [1], 200 units/ml. Further, the MIC against Klebsiella K 10 is listed as 50 units/ml; against E. coli C 165 it was 50 units/ml; in the assay on E. coli A 261 it was greater than 400 units/ml; against Proteus vulg. 3400, 100 units/ml; in the assay on Proteus vulg. 1017 it was 100 units/ml; against Psdm. aerug. Walter, 200 units/ml. The molecule also showed an MIC against Psdm. aerug. Bonn of 400 units/ml.

As for `Cc1ccc(C(NC(=O)N2CCNC2=O)C(=O)N[C@@H]2C(=O)N3[C@@H]2SC(C)(C)[C@@H]3C(=O)O)cc1` (stereo partly drawn) [Example 45, Sodium α-[(imidazolidin-2-on-1-yl)-carbonylamino]-p-methylbenzylpenicillin], the MIC against Staph. aureus 133 is < 0,78 units/ml; against Staph. aureus 1777 E, 400 units/ml; in the assay with E. coli 183/58 it was 6,25 units/ml; in the assay on E. coli 14 it was 6,25 units/ml; against Klebsiella 63 it was 100 units/ml; in [1] it was 50 units/ml. Also, the MIC is recorded as 100 units/ml against Klebsiella K 10; 25 units/ml in the assay on E. coli C 165; greater than 400 units/ml against E. coli A 261; 100 units/ml in the assay on Proteus vulg. 3400; 100 units/ml in the assay with Proteus vulg. 1017; 12,5 units/ml in the assay with Psdm. aerug. Walter. In the assay with Psdm. aerug. Bonn, this molecule had an MIC of 25 units/ml.

On to `Cc1ccc(C(NC(=O)N2CCNC2=O)C(=O)N[C@@H]2C(=O)N3[C@@H]2SC(C)(C)[C@@H]3C(=O)O)cc1` (stereo partly drawn) [Example 46, Sodium α-[(imidazolidin-2-on-1-yl)-carbonylamino]-p-methylbenzylpenicillin], for which the MIC with Staph. aureus 133 is 1,56 units/ml; against Staph. aureus 1777 E, 200 units/ml; against E. coli 183/58, 12,5 units/ml; against E. coli 14, 6,25 units/ml; with Klebsiella 63 it was 50 units/ml; in assay [1], 50 units/ml. Further, the MIC in the assay on Klebsiella K 10 is given as 100 units/ml; in the assay on E. coli C 165, 50 units/ml; in the assay on E. coli A 261, greater than 400 units/ml; in the assay with Proteus vulg. 3400 it was 50 units/ml; in the assay on Proteus vulg. 1017, 25 units/ml; in the assay on Psdm. aerug. Walter, 25 units/ml. This molecule also came in with an MIC with Psdm. aerug. Bonn of 25 units/ml.

For the molecule `CC1(C)S[C@@H]2[C@H](NC(=O)C(NC(=O)N3CCNC3=O)c3ccc(Cl)cc3)C(=O)N2[C@H]1C(=O)O` (stereo partly drawn) [Example 47, Sodium α-[(imidazolidin-2-on-1-yl)-carbonylamino]-p-chloro benzylpenicillin], the MIC with Staph. aureus 133 is < 0,78 units/ml; with Staph. aureus 1777 E, 200 units/ml; against E. coli 183/58, 6,25 units/ml; with E. coli 14 it was 3,12 units/ml; against Klebsiella 63, 50 units/ml; in assay [1] it was 50 units/ml. The MIC is given as 100 units/ml with Klebsiella K 10; 25 units/ml with E. coli C 165; greater than 400 units/ml against E. coli A 261; 100 units/ml in the assay on Proteus vulg. 3400; 50 units/ml with Proteus vulg. 1017; 12,5 units/ml in the assay with Psdm. aerug. Walter. Further, in the assay on Psdm. aerug. Bonn, the MIC is given as 12,5 units/ml.

As for `CC1(C)S[C@@H]2[C@H](NC(=O)[C@H](NC(=O)N3CCNC3=O)c3ccccc3)C(=O)N2[C@H]1C(=O)O` [Example 51, Sodium D(-)-α-[(imidazolidin-2-on-1-yl)-carbonylamino]-benzylpenicillin], the MIC with Staph. aureus 133 was < 0,78 units/ml; in the assay on Staph. aureus 1777 E, 400 units/ml; with E. coli 183/58, 12,5 units/ml; in the assay on E. coli 14 it was 3,12 units/ml; against Klebsiella 63 it was 50 units/ml; in [1], 25 units/ml. Further, the MIC against Klebsiella K 10 was 100 units/ml; in the assay on E. coli C 165, 12,5 units/ml; against E. coli A 261, 400 units/ml; with Proteus vulg. 3400, 25 units/ml; against Proteus vulg. 1017 it was 25 units/ml; against Psdm. aerug. Walter it was 12,5 units/ml. Besides, the MIC with Psdm. aerug. Bonn was 12,5 units/ml.

As for `CC1(C)S[C@@H]2[C@H](NC(=O)[C@H](NC(=O)N3CCNC3=O)c3ccccc3)C(=O)N2[C@H]1C(=O)O` [Example 53, D(-)-α-[(Imidazolidin-2-on-1-yl)-carbonylamino]-benzylpenicillin], the MIC in the assay with Staph. aureus 133 was < 0,78 units/ml; against Staph. aureus 1777 E it was 200 units/ml; in the assay with E. coli 183/58, 12,5 units/ml; against E. coli 14, 3,12 units/ml; in the assay with Klebsiella 63, 25 units/ml; in [1], 12,5 units/ml. Moreover, the MIC was 50 units/ml against Klebsiella K 10; 6,25 units/ml in the assay on E. coli C 165; 400 units/ml in the assay on E. coli A 261; 12,5 units/ml against Proteus vulg. 3400; 6,25 units/ml against Proteus vulg. 1017; 12,5 units/ml in the assay with Psdm. aerug. Walter. Also, the MIC in the assay with Psdm. aerug. Bonn is on record as 6,25 units/ml.
